The assay has as its system 885512-296-R-J2-PDC complex spheroid growth, % test/control. In words: Anticancer human tumor 885512-296-R-J2-PDC patient-derived breast carcinoma cell line growth inhibition [Asc]. The note with it: for viability, T/C: stronger effect = lower value. The gist of the method:
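Spheroid model: tumor line + HUVEC + hMSC. Single agents and combinations; top conc. at/near clinical Cmax (10 microM if undetermined), half-log dilutions. DMSO stocks at 800-fold test concentration.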

[1] abbreviates: curve of first compound, second compound 0.1 µM.
Setting [2] is: curve of first compound, second compound 0.316 µM.
Setting [3] is: curve of first compound, second compound 1 µM.
Setting [4] is: curve of first compound, second compound 3.16 µM.
Setting [5] is: curve of first compound, second compound 10 µM.
[6] abbreviates: second compound 0.1 µM, first compound 0.00316 µM.
[7] abbreviates: second compound 0.1 µM, first compound 0.01 µM.
[8] abbreviates: second compound 0.1 µM, first compound 0.0316 µM.
[9] abbreviates: second compound 0.1 µM, first compound 0.1 µM.
Setting [10] is: second compound 0.316 µM, first compound 0.00316 µM.
Setting [11] is: second compound 0.316 µM, first compound 0.01 µM.
Setting [12] is: second compound 0.316 µM, first compound 0.0316 µM.
[13] abbreviates: second compound 0.316 µM, first compound 0.1 µM.
[14] abbreviates: second compound 1 µM, first compound 0.00316 µM.
The mark [15] stands for this setting: second compound 1 µM, first compound 0.01 µM.
Where [16] appears, read: second compound 1 µM, first compound 0.0316 µM.
Where [17] appears, read: second compound 1 µM, first compound 0.1 µM.
[18] abbreviates: second compound 3.16 µM, first compound 0.00316 µM.
Where [19] appears, read: second compound 3.16 µM, first compound 0.01 µM.
Where [20] appears, read: second compound 3.16 µM, first compound 0.0316 µM.
Where [21] appears, read: second compound 3.16 µM, first compound 0.1 µM.
[22] abbreviates: second compound 10 µM, first compound 0.00316 µM.
The mark [23] stands for this setting: second compound 10 µM, first compound 0.01 µM.
[24] abbreviates: second compound 10 µM, first compound 0.0316 µM.
The mark [25] stands for this setting: second compound 10 µM, first compound 0.1 µM.

Where “and” joins values, the source holds several entries; their conditions need not be identical. Equal entries are not always repeated.

By IC50 is commonly meant the point on the concentration scale where inhibition reaches its midpoint. Usually viability, T/C stands for the ratio of treated to control.
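Further: spheroids exposed to compounds for seven days.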
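Wherever viability, T/C is given: 100% = DMSO vehicle control wells.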

Take `Cn1ncnc1[C@H]1c2n[nH]c(=O)c3cc(F)cc(c23)N[C@@H]1c1ccc(F)cc1` + Cc1c(S(C)(=O)=O)c(-c2cc(F)cc(N3CCN(c4ccc(NS(=O)(=O)c5ccc(NC(CCN6CCC(C(=O)OCCCP(=O)(O)O)CC6)CSc6ccccc6)c(S(=O)(=O)C(F)(F)F)c5)cc4)CC3)c2)c(-c2ccc(Cl)cc2)n1C(C)C: the IC50 runs as follows: under setting [1], 17.2 nM; under setting [2], 26.4 nM; under setting [3], 17.2 nM; under setting [4], 21.5 nM; under setting [5], 28.7 nM. Besides, the viability, T/C reads like this: (second compound 0.1 µM, first compound 0.000316 µM) 85.5%; (second compound 0.1 µM, first compound 0.001 µM) 78.4%; under setting [6], 66.3%; under setting [7], 53.1%; under setting [8], 47.5%; under setting [9], 29.1%. In addition, the viability, T/C by setting is: (second compound 0.316 µM, first compound 0.000316 µM) 105%; (second compound 0.316 µM, first compound 0.001 µM) 77.6%; under setting [10], 85.9%; under setting [11], 58.5%; under setting [12], 54.2%; under setting [13], 26.6%. The viability, T/C is 87.1% (second compound 1 µM, first compound 0.000316 µM); 91.1% (second compound 1 µM, first compound 0.001 µM); 78.4% under setting [14]; 55.3% under setting [15]; 44.1% under setting [16]; 27.9% under setting [17]. The viability, T/C (second compound 3.16 µM, first compound 0.000316 µM) is 88%; the viability, T/C (second compound 3.16 µM, first compound 0.001 µM) is 77.1%; the viability, T/C under setting [18] was 77.8%; the viability, T/C under setting [19] was 66.2%; the viability, T/C under setting [20] was 41.5%; the viability, T/C under setting [21] was 27.9%. In addition, the viability, T/C by setting is: (second compound 10 µM, first compound 0.000316 µM) 120%; (second compound 10 µM, first compound 0.001 µM) 97.9%; under setting [22], 82.8%; under setting [23], 73%; under setting [24], 47.2%; under setting [25], 27.9%.
As to `Cc1c(S(C)(=O)=O)c(-c2cc(F)cc(N3CCN(c4ccc(NS(=O)(=O)c5ccc(NC(CCN6CCC(C(=O)OCCCP(=O)(O)O)CC6)CSc6ccccc6)c(S(=O)(=O)C(F)(F)F)c5)cc4)CC3)c2)c(-c2ccc(Cl)cc2)n1C(C)C` (centres undefined), the viability, T/C is 84.8% [middle of 14 runs] (compound 0.1 µM), 86.5% [middle of 14 runs] (compound 0.316 µM), 88.8% [middle of 14 runs] (compound 1 µM) and 114% [middle of 14 runs] (compound 10 µM). The 50% inhibitory concentration (IC50) (compound alone, run of 09/27/2022) is > 10000 nM.
For the molecule `O=C(c1ccc(F)c(F)c1Nc1ccc(I)cc1F)N1CC(O)([C@@H]2CCCCN2)C1` + Cc1c(S(C)(=O)=O)c(-c2cc(F)cc(N3CCN(c4ccc(NS(=O)(=O)c5ccc(NC(CCN6CCC(C(=O)OCCCP(=O)(O)O)CC6)CSc6ccccc6)c(S(=O)(=O)C(F)(F)F)c5)cc4)CC3)c2)c(-c2ccc(Cl)cc2)n1C(C)C, the IC50 under setting [1] came to 121 nM; the half-inhibitory concentration (IC50) under setting [2] was found to be 94.1 nM; the IC50 under setting [3] came out at 89 nM; the IC50 under setting [4] amounted to 77.9 nM; the IC50 under setting [5] came to 452 nM. Further, the viability, T/C was 77.6% under setting [6]; 82.5% under setting [7]; 69.9% under setting [8]; 50.8% under setting [9]; 34% (second compound 0.1 µM, first compound 0.316 µM); 13.1% (second compound 0.1 µM, first compound 1 µM). Further, the viability, T/C was 94% under setting [10]; 88.8% under setting [11]; 63.6% under setting [12]; 51.9% under setting [13]; 28.7% (second compound 0.316 µM, first compound 0.316 µM); 13.7% (second compound 0.316 µM, first compound 1 µM). In addition, the viability, T/C under setting [14] is 86.9%; the viability, T/C under setting [15] is 68.7%; the viability, T/C under setting [16] is 68.1%; the viability, T/C under setting [17] is 48.4%; the viability, T/C (second compound 1 µM, first compound 0.316 µM) was 30.2%; the viability, T/C (second compound 1 µM, first compound 1 µM) was 12.2%. The viability, T/C was 102% under setting [18]; 86.8% under setting [19]; 55.1% under setting [20]; 51.5% under setting [21]; 30.4% (second compound 3.16 µM, first compound 0.316 µM); 11.2% (second compound 3.16 µM, first compound 1 µM). The viability, T/C is 111% under setting [22]; 109% under setting [23]; 99.2% under setting [24]; 96.1% under setting [25]; 64.2% (second compound 10 µM, first compound 0.316 µM); 16.4% (second compound 10 µM, first compound 1 µM).
Consider `Cc1nc(N2CCC3(CC2)COC(C)C3N)c(CO)nc1Sc1ccnc(N)c1Cl` (centres undefined), for which the viability, T/C runs as follows: (compound 0.00949 µM) 82.5% and 83.1% and 76%; (compound 0.03 µM) 68.2% and 68.5% and 70.9%; (compound 0.0949 µM) 59.3% and 59.5% and 63.1%; (compound 0.3 µM) 54.2% and 53% and 54%; (compound 0.949 µM) 45.2% and 48% and 39.2%; (compound 3 µM) 36.6% and 38.9% and 36.2%. In addition, where the note is “curve of compound”, the IC50 is 408 nM and 453 nM and 373 nM.
In the case of `Cn1ncnc1[C@H]1c2n[nH]c(=O)c3cc(F)cc(c23)N[C@@H]1c1ccc(F)cc1`, the viability, T/C is 101% and 86.7% and 96.2% (compound 0.000316 µM); 86.5% and 84.3% and 90.5% (compound 0.001 µM); 71.1% and 82.5% and 93.2% (compound 0.00316 µM); 70.2% and 73% and 67.9% (compound 0.01 µM); 53.5% and 54.3% and 57.9% (compound 0.0316 µM); 31.4% and 38.2% and 34.5% (compound 0.1 µM). Moreover, where the note is “curve of compound”, the IC50 is 32.3 nM and 43.3 nM and 42.2 nM.

(Values after PubChem BioAssay AID1963447 (Molecular Pharmacology Branch, DTP, NCI, 2024).)
